Measurements published in article PMC5433425 (PeerJ, 2017).
Peptide text beside a SMILES is read from it. * marks the point of attachment. βNA = c1ccc2cc(N*)ccc2c1

Experiments:
E. coli AG100tet = test: EtBr efflux by real-time fluorometry; conditions: 80 µM
E. coli AG100 = test: EtBr accumulation by real-time fluorometry; conditions: EtBr 1 µg/ml + inhibitor 80 µM

With `NC(N)=NCCC[C@H](NC(=O)[C@@H](N)Cc1ccccc1)C(=O)Nc1ccc2ccccc2c1` [PAβN] (H-Phe-Arg-βNA) the “Fluorescence raw data, Channel Cycling A.530/585hp” value (“Fluorescence raw data” below) (E. coli AG100tet; cycle 34, + glucose) was 1.608, the “Fluorescence raw data” value (E. coli AG100tet; cycle 34, without glucose) was 2.188 and the “Fluorescence raw data” value (E. coli AG100tet; cycle 35, + glucose) was 1.636. For the same compound, the “Fluorescence raw data” value (E. coli AG100tet; cycle 35, without glucose) was 2.154, the “Fluorescence raw data” value (E. coli AG100tet; cycle 36, + glucose) was 1.655 and the “Fluorescence raw data” value (E. coli AG100tet; cycle 36, without glucose) was 2.1525. The “Fluorescence raw data” value (E. coli AG100tet; cycle 37, + glucose) was 1.639, the “Fluorescence raw data” value (E. coli AG100tet; cycle 37, without glucose) was 2.17 and the “Fluorescence raw data” value (E. coli AG100tet; cycle 38, + glucose) was 1.617. For the same compound, the “Fluorescence raw data” value (E. coli AG100tet; cycle 38, without glucose) was 2.15, the “Fluorescence raw data” value (E. coli AG100tet; cycle 39, + glucose) was 1.593 and the “Fluorescence raw data” value (E. coli AG100tet; cycle 39, without glucose) was 2.185. The “Fluorescence raw data” value (E. coli AG100tet; cycle 40, + glucose) was 1.564, the “Fluorescence raw data” value (E. coli AG100tet; cycle 40, without glucose) was 2.132 and the “Fluorescence raw data” value (E. coli AG100tet; cycle 41, + glucose) was 1.567. For the same compound, the “Fluorescence raw data” value (E. coli AG100tet; cycle 41, without glucose) was 2.08, the “Fluorescence raw data” value (E. coli AG100tet; cycle 42, + glucose) was 1.587 and the “Fluorescence raw data” value (E. coli AG100tet; cycle 42, without glucose) was 2.131. The “Fluorescence raw data” value (E. coli AG100tet; cycle 43, + glucose) was 1.59, the “Fluorescence raw data” value (E. coli AG100tet; cycle 43, without glucose) was 2.079 and the “Fluorescence raw data” value (E. coli AG100tet; cycle 44, + glucose) was 1.59. The “Fluorescence raw data” value (E. coli AG100tet; cycle 44, without glucose) was 2.093, the “Fluorescence raw data” value (E. coli AG100tet; cycle 45, without glucose) was 2.121 and the “Fluorescence raw data” value (E. coli AG100tet; cycle 46, without glucose) was 2.065. The “Fluorescence raw data” value (E. coli AG100tet; cycle 47, without glucose) was 2.081, the “Fluorescence raw data” value (E. coli AG100tet; cycle 48, without glucose) was 2.1149 and the “Fluorescence raw data” value (E. coli AG100tet; cycle 49, without glucose) was 2.071. For the same compound, the “Fluorescence raw data” value (E. coli AG100tet; cycle 50, without glucose) was 2.047, the “Fluorescence raw data” value (E. coli AG100tet; cycle 51, without glucose) was 2.071 and the “Fluorescence raw data” value (E. coli AG100tet; cycle 52, without glucose) was 2.107. The “Fluorescence raw data” value (E. coli AG100tet; cycle 53, without glucose) was 2.082, the “Fluorescence raw data” value (E. coli AG100tet; cycle 54, without glucose) was 2.046 and the “Fluorescence raw data” value (E. coli AG100tet; cycle 55, without glucose) was 2.03. The “Fluorescence raw data” value (E. coli AG100tet; cycle 56, without glucose) was 2.023, the “Fluorescence raw data” value (E. coli AG100tet; cycle 57, without glucose) was 2.015 and the “Fluorescence raw data” value (E. coli AG100tet; cycle 58, without glucose) was 2.049. For the same compound, the “Fluorescence raw data” value (E. coli AG100tet; cycle 59, without glucose) was 2.011, the “Fluorescence raw data” value (E. coli AG100tet; cycle 60, without glucose) was 2.05 and the “Fluorescence raw data” value (E. coli AG100tet; cycle 61, without glucose) was 1.991. It also gave an EtBr fluorescence (E. coli AG100; cycle 1) of 5.077, an EtBr fluorescence (E. coli AG100; cycle 2) of 5.498 and an EtBr fluorescence (E. coli AG100; cycle 3) of 5.692. The EtBr fluorescence (E. coli AG100; cycle 4) was 6.095, the EtBr fluorescence (E. coli AG100; cycle 5) was 6.2405 and the EtBr fluorescence (E. coli AG100; cycle 6) was 6.476. The EtBr fluorescence (E. coli AG100; cycle 7) was 6.738, the EtBr fluorescence (E. coli AG100; cycle 8) was 6.948 and the EtBr fluorescence (E. coli AG100; cycle 9) was 7.121. It also gave an EtBr fluorescence (E. coli AG100; cycle 10) of 7.401, an EtBr fluorescence (E. coli AG100; cycle 11) of 7.525 and an EtBr fluorescence (E. coli AG100; cycle 12) of 7.725. It also gave an EtBr fluorescence (E. coli AG100; cycle 13) of 8.024, an EtBr fluorescence (E. coli AG100; cycle 14) of 8.041 and an EtBr fluorescence (E. coli AG100; cycle 15) of 8.277. For the same compound, the EtBr fluorescence (E. coli AG100; cycle 16) was 8.537, the EtBr fluorescence (E. coli AG100; cycle 17) was 8.7426 and the EtBr fluorescence (E. coli AG100; cycle 18) was 8.8367. For the same compound, the EtBr fluorescence (E. coli AG100; cycle 19) was 8.945, the EtBr fluorescence (E. coli AG100; cycle 20) was 9.137 and the EtBr fluorescence (E. coli AG100; cycle 21) was 9.31. It also gave an EtBr fluorescence (E. coli AG100; cycle 22) of 9.534, an EtBr fluorescence (E. coli AG100; cycle 23) of 9.8 and an EtBr fluorescence (E. coli AG100; cycle 24) of 9.927. For the same compound, the EtBr fluorescence (E. coli AG100; cycle 25) was 10.0486, the EtBr fluorescence (E. coli AG100; cycle 26) was 10.1364 and the EtBr fluorescence (E. coli AG100; cycle 27) was 10.3331. It also gave an EtBr fluorescence (E. coli AG100; cycle 28) of 10.5844, an EtBr fluorescence (E. coli AG100; cycle 29) of 10.7732 and an EtBr fluorescence (E. coli AG100; cycle 30) of 11.0863.
